# What was measured:
# [1] = test system: antibodies directed against the nucleocapsid (N) protein of SARS-CoV-2; assay: Anti-N antibody levels (AProof Duo Test ELISA) at 6-month follow-up, COVit-2 trial; type: in vivo, human
# [2] = test system: antibodies directed against the spike (S) protein of SARS-CoV-2; assay: Anti-S antibody levels (AProof Duo Test ELISA) at 6-month follow-up, COVit-2 trial; type: in vivo, human
# Source text: (§1) In the monocentric, randomized, double-blind, prospective, placebo-controlled dietary intervention trial COVit-2 (DRKS00021214; NCT04751604) conducted at the Department of Internal Medicine I of the University Medical Center Schleswig-Holstein, Campus Kiel (Germany), outpatients with early symptomatic COVID-19 (up to 7 days after their first positive SARS-CoV-2 PCR test) in domestic quarantine were recruited from February 2021 to January 2022. As the vaccinations against SARS-CoV-2 became available to the broader public only after several hundred patients had already been recruited into the COVit-2 trial, partly or fully vaccinated patients were excluded from participation to maintain the same inclusion population and ensure formal comparability of all patients within the trial. However, there is no reason or evidence to assume that the fundamental metabolic and microbiota-targeting effects of nicotinamide could be any different in symptomatic COVID-19 patients with or without prior vaccination.
# (§2) For details of the trial, see Wätzig & Schreiber 2021, PCT/EP2021/083138. Patients were randomized to oral self-administration (once daily with breakfast for 28 days) of either a combination of two different nicotinamide tablets (one conventional 500-mg immediate-release nicotinamide tablet and one novel 500-mg controlled-ileocolonic-release nicotinamide [CICR-NAM]tablet, which ensures prolonged and continuous intestinal exposure to nicotinamide) or matching placebo tablets. The entire trial was conducted remotely. Patients registered online and were contacted by the study team to check their eligibility and to supply the written patient information and informed consent forms. After informed consent, patients were called for baseline data acquisition (week 0) and subsequently at week 2, week 4 and week 6. The queried baseline information included personal and demographic data, smoking status, comorbidities, concomitant administration of dietary supplements or medicaments as well as COVID-19 symptoms. At weeks 2, 4 and 6, regular intake of the trial supplements and concomitant supplements and medicaments, respectively, was queried as well as the current COVID-19 symptoms and disease course.
# For the antibody level measurements, the time between the positive SARS-CoV-2 PCR test and the date of blood sampling for antibody analysis as well as, if applicable, the intervals between one or more subsequent vaccinations against SARS-CoV-2 and the blood sampling date were recorded. Antibody levels were measured using the AProof Duo Test (Adversis Pharma, now AP Diagnostics; Leipzig, Germany). In this test, dried blood spot samples are rehydrated and analysed by ELISAs detecting antibodies directed against the nucleocapsid (N) or spike (S) protein of SARS-CoV-2. Antibodies against the N protein are analysed to evaluate immunity generated only by SARS-CoV-2 infection. After infection with SARS-CoV-2, levels of antibodies against the S protein can represent both the consequences of infection (if no additional vaccination is performed) or of the combined humoral immunity generated by infection and subsequent vaccination(s). Between the 6-week observation period of the acute infection and the follow-up after at least 6 months, many trial participants had been vaccinated against SARS-CoV-2. Anti-N antibody levels were quantified as percent of the signal of a positive control consisting of an anti-N antibody pool from five donors collected at different time points starting 2 weeks after PCR-confirmed infection with SARS-CoV-2. This anti-N antibody pool was diluted in the negative control medium at a fixed ratio. The detection was considered negative if below 20% of the positive control, borderline for 20-30% and positive if above 30%. Anti-S antibody protein levels were quantified as binding antibody units per milliliter (BAU/mL; according to the WHO International Standard for anti-SARS-CoV-2 immunoglobulin [human][NIBSC code 20/136]). […]
# [3] = test system: COVID-19 patients (PCS symptoms); assay: Perceived Stress Scale (PSS) at 6-month follow-up, COVit-2 pilot population; type: in vivo, human; conditions: pilot population n=50
# Source text: (§3) In the monocentric, randomized, double-blind, prospective, placebo-controlled dietary intervention trial COVit-2 (DRKS00021214; NCT04751604) conducted at the Department of Internal Medicine I of the University Medical Center Schleswig-Holstein, Campus Kiel (Germany), outpatients with early symptomatic COVID-19 (up to 7 days after their first positive SARS-CoV-2 PCR test) in domestic quarantine were recruited from February 2021 to January 2022. […]
# (§4) Approximately 6 months after infection, patients were contacted for follow-up interviews and a large battery of questionnaires and tests including antibody level measurements. […] A validated smell test (University of Pennsylvania Smell Identification Test™; Sensonics/MediSense) was performed by the patient and recorded as patient-reported outcome by a paper questionnaire. Questionnaires on olfactory and gustatory abilities (incl. the Self-reported Mini Olfactory Questionnaire, Self-MOQ, and the Questionnaire of Olfactory Disorders, QOD), respiration (Multidimensional Dyspnea Profile, MDP), mental state (Patient Health Questionnaire Depression, PHQ-8; Generalised Anxiety Disorder 7, GAD-7; Perceived Stress Scale, PSS; Brief Resilience Scale, BRS), sleep quality (Pittsburgh Sleep Quality Index, PSQI) and fatigue (Multidimensional Fatigue Inventory, MFI) were recorded as patient-reported outcomes by paper questionnaires. […]
# [4] = test system: COVID-19 patients (PCS symptoms); assay: Patient Health Questionnaire Depression (PHQ-8) at 6-month follow-up, COVit-2 pilot population; type: in vivo, human; conditions: pilot population n=50
# Source text: as §3, §4
# [5] = test system: COVID-19 patients (PCS symptoms); assay: Generalised Anxiety Disorder 7 (GAD-7) at 6-month follow-up, COVit-2 pilot population; type: in vivo, human; conditions: pilot population n=50
# Source text: as §3, §4
# [6] = test system: COVID-19 patients (PCS symptoms); assay: University of Pennsylvania Smell Identification Test (UPSIT) at 6-month follow-up, COVit-2 pilot population; type: in vivo, human; conditions: pilot population n=50
# Source text: as §3, §4
# [7] = test system: COVID-19 patients (PCS symptoms); assay: Cognition test T3MS at 6-month follow-up, COVit-2 pilot population; type: in vivo, human
# Source text: as §3, §4
# [8] = test system: COVID-19 patients; assay: Impaired sense of smell in acute COVID-19 (patient interviews, change to baseline), COVit-2 risk factor population; type: in vivo, human; conditions: for Impaired sense of smell: Persistence (no change), frequency / Impaired sense of smell: Resolution of impairment (return to normal), frequency / Impaired sense of smell: Worsening (new impairment), frequency: number of patients
# Source text: as §1, §2
# (§5) The COVit-2 trial (see Example 2) was expanded to a total of n=900 randomized patients. Of these, n=500 patients had at least one characteristic or underlying medical condition associated with an increased risk of developing severe illness from COVID-19, which was the population that had benefited most from nicotinamide supplementation in the acute phase of the disease (Wätzig & Schreiber 2021, PCT/EP2021/083138) and is hereinafter referred to as ‘risk factor population’.
# (§6) In contrast, in the final analysis of n=500 patients of the risk factor population (the primary analysis population for acute COVID-19 in the COVit-2 trial), there was rather a trend favouring placebo, as evidenced by the rates of resolved, constant or newly occurring impairment shown in Table 2 to Table 5 below.
# (§7) Here, the efficacy variables “impaired sense of smell” (yes/no) and “impaired sense of taste” (yes/no) from patient interviews represent the broadest and most sensitive approach, as other more specific tests or questions miss aspects of smell or taste that are not explicitly queried and thus may fail to detect significant differences. In the acute phase of the COVit-2 trial, these variables were analyzed using change to baseline, considered as resolution (symptom present at baseline but not at week x), persistence (no change compared to baseline) or worsening (symptom present at week x but not at baseline). The frequency of patients with symptom resolution, persistence or worsening for all weeks by treatment group was compared using the Cochran-Mantel-Haenszel test. Post-hoc tests for each week were calculated using the Fisher Exact test with Benjamini & Hochberg adjustment for multiple testing. The Woolfe test was performed to test for homogeneity of odds ratios across time. […]
# [9] = test system: COVID-19 patients; assay: Impaired sense of taste in acute COVID-19 (patient interviews, change to baseline), COVit-2 risk factor population; type: in vivo, human; conditions: for Impaired sense of taste: Persistence (no change), frequency / Impaired sense of taste: Resolution of impairment (return to normal), frequency / Impaired sense of taste: Worsening (new impairment), frequency: number of patients
# Source text: as §1, §2, §5, §6, §7
# [10] = test system: COVID-19 patients; assay: Impaired sense of smell at 6 months after COVID-19, COVit-2 risk factor population; type: in vivo, human
# Source text: as §2, with “At weeks 2, 4 and 6, regular intake of the trial supplements and concomitant supplements and medicaments, respectively, was queried as well as the current COVID-19 symptoms and disease course.” left out
# (§8) Approximately 6 months after infection, patients were contacted for follow-up interviews and a large battery of questionnaires and tests including antibody level measurements. […] A validated smell test (University of Pennsylvania Smell Identification Test™; Sensonics/MediSense) was performed by the patient and recorded as patient-reported outcome by a paper questionnaire. […]
# [11] = test system: COVID-19 patients; assay: Impaired sense of taste at 6 months after COVID-19, COVit-2 risk factor population; type: in vivo, human
# Source text: as §2, with “At weeks 2, 4 and 6, regular intake of the trial supplements and concomitant supplements and medicaments, respectively, was queried as well as the current COVID-19 symptoms and disease course.” left out
# as §8
# [12] = test system: COVID-19 patients; conditions: week 2; of 92 patients treated with nicotinamide
# [13] = test system: COVID-19 patients; conditions: acute phase, baseline until Week 6, mainly at week 2; interim analysis n=402; cited from earlier work
# [14] = test system: COVID-19 patients (PCS); assay: PCS score at 6 months after COVID-19 in PCS risk factor population, COVit-2; conditions: PCS risk factor population (more than 5 predictors), N = 70
# Source text: In this PCS score, 12 long-term symptom complexes (fatigue, cough/wheezing, neurological ailments, joint/muscle pain, ear-nose-throat ailments, gastrointestinal ailments, sleeping disturbance, exercise intolerance, infection signs, chemosensory deficits, chest pain and dermatological ailments) are combined with different weights.
# In order to characterize a relevant subpopulation of the risk factor population as defined above that was additionally at risk for the development of PCS, baseline characteristics and symptoms of all available patients of the placebo population (n=425) were used to identify predictors for a PCS score of ≥5 at month 6 with a significance threshold of P<0.05. These predictors were the following: • medical history: chronic obstructive pulmonary disease, organ transplantation, depression, other chronic diseases, permanent intake of medication; • symptoms from the onset of COVID-19 until the trial baseline: shortness of breath, whistling/wheezing breathing, dizziness, vomiting, conjunctivitis; • at baseline: shortness of breath, whistling/wheezing breathing, dizziness, conjunctivitis, chills, muscle pain, limb pain, limitation of activity (a score of 2 in the WHO scale of COVID-19 severity developed in 2020; https://apps.who.int/iris/rest/bitstreams/1266940/retrieve, last accessed on 20 Mar. […]
# [15] = first 50 patients per trial arm
# [16] = n=50, negative if below 20% of positive control
# [17] = n=50, positive if above 30% of positive control
# [18] = n=50, negative if below 22 BAU/mL
# [19] = n=50, positive if above 44 BAU/mL
# [20] = acute phase, baseline until Week 6
# [21] = 6 months after COVID-19, N = 236
structure (smiles),measurement,setting,value
"NC(=O)c1cccnc1 [Nicotinamide, nicotinamide]","Anti-N antibodies, median",[1]; [15],10% + control
same,"Anti-N antibodies, % negative",[1]; [16],66%
same,"Anti-N antibodies, n negative",[1]; [16],33
same,"Anti-N antibodies, % positive",[1]; [17],28%
same,"Anti-N antibodies, n positive",[1]; [17],14
same,"Anti-S antibodies, median",[2]; [15],813 BAU/mL
same,"Anti-S antibodies, % negative",[2]; [18],2%
same,"Anti-S antibodies, n negative",[2]; [18],1
same,"Anti-S antibodies, % positive",[2]; [19],94%
same,"Anti-S antibodies, n positive",[2]; [19],47
same,"Anti-S antibodies, median",[2]; patients with at least one characteristic or condition associated with increased risk of severe COVID-19,"1,121 BAU/mL"
same,median PSS score,[3],24
same,median PHQ-8 score,[4],4
same,median GAD-7 score,[5],3
same,proportion of patients with strong microsmia/hyposmia (UPSIT score <26),[6],2%
same,proportion of patients with mild cognitive impairment (T3MS score <89),[7]; patients with increased risk of developing severe COVID-19,10%
same,proportion of patients with mild cognitive impairment (T3MS score <89),[7]; pilot population n=50,8%
same,"Impaired sense of smell: Persistence (no change), frequency",[8]; Week 2,155
same,"Impaired sense of smell: Resolution of impairment (return to normal), frequency",[8]; Week 2,61
same,"Impaired sense of smell: Worsening (new impairment), frequency",[8]; Week 2,32
same,"Impaired sense of smell: Persistence (no change), frequency",[8]; Week 4,150
same,"Impaired sense of smell: Resolution of impairment (return to normal), frequency",[8]; Week 4,78
same,"Impaired sense of smell: Worsening (new impairment), frequency",[8]; Week 4,20
same,"Impaired sense of smell: Persistence (no change), frequency",[8]; Week 6,141
same,"Impaired sense of smell: Resolution of impairment (return to normal), frequency",[8]; Week 6,92
same,"Impaired sense of smell: Worsening (new impairment), frequency",[8]; Week 6,15
same,effect on impaired sense of smell,[8]; [20],no beneficial effect
same,"Impaired sense of taste: Persistence (no change), frequency",[9]; Week 2,170
same,"Impaired sense of taste: Resolution of impairment (return to normal), frequency",[9]; Week 2,56
same,"Impaired sense of taste: Worsening (new impairment), frequency",[9]; Week 2,22
same,"Impaired sense of taste: Persistence (no change), frequency",[9]; Week 4,159
same,"Impaired sense of taste: Resolution of impairment (return to normal), frequency",[9]; Week 4,74
same,"Impaired sense of taste: Worsening (new impairment), frequency",[9]; Week 4,15
same,"Impaired sense of taste: Persistence (no change), frequency",[9]; Week 6,157
same,"Impaired sense of taste: Resolution of impairment (return to normal), frequency",[9]; Week 6,83
same,"Impaired sense of taste: Worsening (new impairment), frequency",[9]; Week 6,8
same,effect on impaired sense of taste,[9]; [20],no beneficial effect
same,"Impaired sense of smell, % of patients",[10]; [21],11.02%
same,effect on frequency of impaired sense of smell,[10]; after six months,significantly reduced frequencies
same,"Impaired sense of taste, % of patients",[11]; [21],8.05%
same,effect on frequency of impaired sense of taste,[11]; after six months,significantly reduced frequencies
same,shortness of breath: patients recovered,[12],56
same,benefit with regard to parameters of physical performance,[13],biologically and statistically significant benefit
same,"PCS score, mean",[14],3.66

# Source: patent US20250213549A1, “COMPOSITION COMPRISING NICOTINAMIDE, NICOTINAMIDE PRECURSORS, NICOTINAMIDE METABOLITES OR COMBINATIONS THEREOF FOR PREVENTING OR REDUCING ONE OR MORE POST-ACUTE SYMPTOMS OF INFECTIOUS DISEASES” (CONARIS Research Institute AG, priority 2022, published 2025)
